Test results as given in patent publication US9034825B2, “Treatment of myocardial injury with humanin analogs” (Albert Einstein College of Medicine of Yeshiva University, priority 2007, dated 2015).
Blank lines part the entries; values can stand above or below the substance they belong to. Where no end group is shown, it is not given here.

Columns and labels:
NIT cells = experiment: Survival, STAT-3 and ERK activation in NIT cells; assay type: cell-based
Description: Z-humanin, […] (SEQ ID NO:19).

BP3KO MEFs = experiment: Apoptosis ELISA in IGFBP3 KO mouse embryonic fibroblasts; assay type: cell-based; settings: 24 hours, 100 nM of peptides
Experimental: Mouse embryonic fibroblasts derived from normal and IGFBP3 KO mice were used to test the effects of humanin and its analogues on survival. Apoptosis ELISA was used as an output measure and cells were treated for 24 hours with 100 nM of peptides. […] Thus, the HNGF6A humanin analogue has non-obvious properties that are different from previously described humanin derivatives and has increased potency as a result of its specific molecular alteration leading to reduced IGFBP-3 binding.

[1] = system: mice, myocardial ischemia-reperfusion (I/R) injury; experiment: Murine myocardial ischemia-reperfusion injury; assay type: in vivo, mouse
Experimental: The cardioprotective effects of a single-dose of humanin analog HNG treatment were investigated in a murine model of myocardial ischemia-reperfusion (I/R) injury. Mice were subjected to transient myocardial ischemia for a period of 45 min followed by 24 hour reperfusion. HNG (1, 5, 10, 25, 50 and 200 microgram) or vehicle (saline) was administered intraperitoneally one hour before ischemia.

[2] = system: memory impairment caused by AD-related insults; settings: literature (Tajima et al., 2005); cited from earlier work
[3] = system: pAKT and pSTAT-3 in hepatocytes; experiment: Western blot of Phospho-STAT3 and Phospho-AKT in primary hepatocytes; assay type: cell-based, rat
Experimental: Single-cell suspensions of hepatocytes were obtained from perfusions of Sprague-Dawley rats using the procedure of Berry and Friend (1969) and the perfusion mixture of Leffert et al (1979). Hepatocyte glucose production was estimated after a 24 hr treatment with HN, F6A and saline as described before (Berg et al. 2001). In a separate set of experiment, hepatocytes were lysed, and protein extracted in RIPA lysis buffer at 30, 60 and 360 min post treatment with FIN, F6A and saline. The cell lysates were then subject to western blotting for Phospho-STAT3 (Tyr705), total-STAT3, Phospho-AKT (Ser473), and total-AKT expression (antibodies purchased from Cell Signaling, #9131, #9132, #9271, #9272).

Sprague-Dawley rats [4] = experiment: ICV infusion of IGF-1, IGFBP-3 or NLS mutant with basal and hyperinsulinemic clamp; assay type: in vivo, rat; settings: for Glycogen synthesis, Basal / Glycolysis, Basal / HGP, Basal: basal period; for GIR, Clamp: hyperinsulinemic clamp 3 mU/kg/min; for FFA: last 60 min; for whole body glucose disposal / peripheral glucose uptake (Rd) compared to controls: final 60 min; for infused human peptide in the rat periphery: after ICV infusion
Description: Young (3 mo old, n=6 in each group), male Sprague-Dawley rats (Charles River Laboratories, Wilmington, Mass.) were used for this study. Rats were housed in individual cages and were subjected to a standard light (6:00 AM to 6:00 PM)—dark (6:00 PM to 6:00 AM) cycle. All rats were fed ad libitum using regular rat chow that consisted of 64% carbohydrate, 30% protein, and 6% fat with a physiological fuel value of 3.3-kcal/g chow. In the rats that received ICV infusions, 2 to 4 weeks before the in vivo study, the rats were anesthetized by inhalation of isoflurane and a cannula was placed ICV in the third ventricle for infusions of IGF-1, IGFBP-3 or IGFBP-3 mutant or artificial cerebrospinal fluid (aCSF), as previously described (Muzumdar et al., 2003) (FIG. 1). Briefly, a 26-gauge stainless steel guide cannula (Plastics One, Roanoke, Va.) was chronically implanted into the third ventricles using the following coordinates from bregma: anterior-posterior; +0.2 mm dorsal-ventral; −9.0 mm medial-lateral; 0.0 directly on the mid-sagittal suture, followed by a 28-gauge dummy cannula, inserted to prevent clogging of the guide cannula. The implant was secured to the skull with Caulk Grip dental cement, and the skin was closed over the implant using wound clips. The recovery of rats from the surgical stress was monitored with daily weight, food intake, and movement.
Upon recovery of body weight, usually a week, indwelling catheters were placed in the right internal jugular vein and in the left carotid artery (Muzumdar et al., 2003). The venous catheter was extended to the level of the right atrium, and the arterial catheter was advanced to the level of the aortic arch. Recovery was continued until body weight was within 3% of the pre-operative weight (˜4-6 days). In the rats that received peripheral IGFBP-3, only the vascular catheters were placed.
Studies were performed in unrestrained rats using the insulin clamp technique, in combination with high performance liquid chromatography-purified [3-^3H]glucose and [U-^14C]lactate infusions, as described previously (Liu et al., 1998). Food was removed for ˜5 h before the in vivo protocol. All studies lasted 360 min and included a 120-min equilibration period, a 120-min basal period for assessment of the basal glucose turnover, and a 120-min hyperinsulinemic clamp period. All rats received ICV infusions (bolus followed by continuous ICV infusions of IGF-1, IGFBP-3, IGFBP-3 mutant or aCSF, depending on the group) over the entire 6 hours of the study. At the beginning of the basal period and 120 min before starting the glucose/insulin infusions, a primed-continuous infusion of high performance liquid chromatography-purified [3-^3H]glucose (NEN Life Science Products, Boston, Mass.; 20 μCi of bolus, 0.2 μCi/min) was initiated and maintained throughout the remaining 4 h of the study. In the final 2 hours of the study, the rats were subjected to hyperinsulinemic clamp. The protocol followed during the insulin clamp study was similar to that previously described (Liu et al., 1998). Briefly, a primed-continuous infusion of regular insulin (3 milliunits/kg·min) was administered, and a variable infusion of a 25% glucose solution was started and periodically adjusted to clamp the plasma glucose concentration at 7-8 mM. To prevent endogenous insulin secretion and in order to control for possible effects of ICV infusions on the endocrine pancreas, somatostatin (1.5 μg/kg·min) was also infused in all the groups. [U-^14C]Lactate (5 μCi of bolus/0.25 μCi/min) was infused during the last 10 min of the study.
A bolus of hIGF-1 (0.3 mcg, a gift from Tercica, South San Francisco) was followed by a continuous infusion over 6 hours (total dose of 1 mcg, 0.06 μg/kg/hr).
A bolus of non glycosylated hIGFBP-3 (1.25 μg, generously provided by Celtrix, Mountain View Calif.) was followed by a continuous infusion over 6 hours (total dose of 5.25 mcg, 0.26 μg/kg/hr). […]

PEPCK mRNA in the liver = experiment: Hepatic PEPCK mRNA by qRT-PCR at end of clamp after ICV infusion; assay type: in vivo, rat; settings: ICV infusion for 6 h, end of clamp (Example 1)
Experimental: (§1) Total RNA was extracted following Clontech's protocol. First-stranded cDNA was synthesized from 1 μg of total RNA using Superscript III (Gibco, Gaithersburg, Md.). Hepatic glucose-6-phosphatase (Glc-6-Pase) and phosphoenolpyruvate carboxykinase (PEPCK) mRNA abundance were assessed by qRT-PCR as described previously (Buettner et al., 2005). Quantification of these peptides and their copy number was normalized for GAPDH and 18S to correct for loading irregularities. The data presented are those normalized by GAPDH.

[5] = system: Glc-6-Pase mRNA in the liver; experiment: Hepatic Glc-6-Pase mRNA by qRT-PCR at end of clamp after ICV infusion; assay type: in vivo, rat
Experimental: as §1

Sprague-Dawley rats [6] = experiment: Intravenous infusion of humanin or analogs during hyperinsulinemic clamp; assay type: in vivo, rat; settings: IV during hyperinsulinemic clamp
Experimental: To study the acute effects of an infusion of IGFBP-3, two groups of awake, unstressed, chronically catheterized Sprague-Dawley rats (˜300 g) were studied for 300 min (n=3 in each group) under hyperinsulinemic clamp (as previously described). From 120 min the rats received a primed continuous infusion of humanin (0.375 mg/kg/hr) or saline (control) for an additional 2 h. Plasma samples for determination of [3H]glucose and [3H] water specific activities were obtained at 10-min intervals during the basal and clamp periods. Steady state conditions for the plasma glucose concentration and specific activity were achieved within 90 min in all the studies. Plasma samples for determination of HN, insulin and FFA concentrations were collected at 30-min intervals throughout the study. All determinations were also performed on portal vein blood obtained at the end of the experiments. The total amount of blood drawn during the entire study for various assays is ˜3 cc. After separation of plasma (subsequently used for analysis), the red blood cells were reconstituted in saline and infused back into the animal.
To determine if peripheral infusion of the humanin analog colivelin affects insulin action, saline or colivelin (one hundredth of the dose of humanin) was infused intravenously during hyperinsulinemic clamp to two groups of rats that were matched for body weight (˜300 gm), visceral fat (˜3.5 grams), basal glucose (˜135 mg % or 7 mM). Colivelin increased hepatic insulin sensitivity by 33% while peripheral glucose uptake was unchanged (FIG. 14).
A primed-continuous ICV infusion of HN, F6A-HN (total dose of 20 μg), STAT-3 inhibitor (75 pmol) (Buettner et al. 2006), or aCSF was initiated at t=0 and maintained for the remainder of the experiment (FIG. 15A). Pancreatic insulin-clamp studies or euglycemic-hyperinsulinemic clamps were performed in conscious, unrestrained, catheterized mice for last 120 minutes as described previously (Bahar et al. 2006, Muzumdar et al. 2006). In the intra-venous group, HN, F6A, Colivelin, and HNGF6A were infused intravenously and hyperinsulinemic clamps were performed as described previously (Loeb et al. 2005). Estimation of glucose, glucose fluxes, insulin, FFA were done as described previously (Loeb et al. 2005). HN measurements were performed by an in-house, ELISA utilizing affinity purified humanin antibodies that recognize both human and rat humanin and has a limit of detection of 0.1 ng/ml (Hwang, and Cohen personal communication).

IGF-1 = IGF-1 (Homo sapiens, UniProt P05019); experiment: Western ligand blots with 125I-labeled IGF-1; assay type: binding; settings: data not shown
IGF-1, sequence (P05019 49-118): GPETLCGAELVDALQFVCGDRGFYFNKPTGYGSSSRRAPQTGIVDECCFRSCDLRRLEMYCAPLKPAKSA

[7] = ICV IGF-1 1 μg over 6 h, hyperinsulinemic clamp
[8] = ICV infusion, hyperinsulinemic clamp
[9] = humanin 0.375 mg/kg/hr, colivelin one hundredth of the dose of humanin
[10] = ICV IGFBP-3 or NLS mutant over 6 h
[11] = ICV IGFBP-3 or NLS mutant over 6 h, hyperinsulinemic clamp

Substance: MAPRGASCLLLLTGEIDLPVARRA (Humanin analog HNGF6AK21A)
potency in survival, STAT-3 activation and ERK activation relative to humanin (NIT cells): much greater potency than humanin

Substance: maprgfscll lltgeidlpv krra (MAPRGFSCLLLLTGEIDLPVKRRA; Humanin analog S14G (HNG)) [humanin analogue in which serine at position 14 is replaced by glycine]
potency on survival (Apoptosis ELISA) (BP3KO MEFs): equal potency
myocardial injury ([1]; single dose IP one hour before 45 min ischemia, 24 hour reperfusion): decreased myocardial injury
doses at which reduced myocardial infarct was observed ([1]; single dose IP one hour before ischemia, 1-200 microgram tested): ≥ 5 µg
potency relative to native HN in rescue activity against AD-related insults in vivo [2]: 1000 times

Substance: MAKRGLNCLPHQVSEIDLSVQKRI (Danio rerio) [Z-humanin]
potency in survival, STAT-3 activation and ERK activation relative to humanin (NIT cells): two-fold greater potency than humanin

pAKT or pSTAT-3 in hepatocytes [3]: did not elicit significant changes
Substance: MAPRGASCLLLLTSEIDLPVKRRA [F6A HN, maprgascll lltseidlpv krra]

expression of G-6Pase lower than aCSF ([5]; ICV IGF-1, end of clamp): 3 fold
expression of G-6Pase in the liver, ratio to GAPDH ([5]; ICV infusion for 6 h, end of clamp (Example 1)): 2.6 ±0.6
Substance: IGF-1: hIGF-1, Insulin-like growth factor-1, a gift from Tercica
Glycogen synthesis, Basal (Sprague-Dawley rats [4]; ICV IGF-1 1 μg over 6 h): 4.87 ± 0.87
Glycolysis, Basal (Sprague-Dawley rats [4]; ICV IGF-1 1 μg over 6 h): 7.02 ± 0.93 mg/kg/min
HGP, Basal (Sprague-Dawley rats [4]; ICV IGF-1 1 μg over 6 h): 12.4 ± 1.65 mg/kg/min
Glycogen synthesis, Clamp (Sprague-Dawley rats [4]; [7]): 8.09 ± 0.67
Glycolysis, Clamp (Sprague-Dawley rats [4]; [7]): 13.53 ± 1.17 mg/kg/min
HGP, Clamp (Sprague-Dawley rats [4]; [7]): 2.49 ± 0.54 mg/kg/min
Rd, Clamp (Sprague-Dawley rats [4]; [7]): 21.62 ± 0.74 mg/kg/min
GIR, Clamp (Sprague-Dawley rats [4]; ICV IGF-1 1 μg over 6 h): 19.08 ± 1.55 mg/kg/min
FFA (Sprague-Dawley rats [4]; [7]): 0.23 ± 0.02 mEq/l
IGF-1, human (Sprague-Dawley rats [4]; ICV IGF-1 1 μg over 6 h, peripheral plasma): 0 ng/mL
improvement in hepatic insulin action (lower HGP than controls) (Sprague-Dawley rats [4]; ICV IGF-1, insulin clamp 3 mU/kg/min): 50%
gluconeogenesis (Sprague-Dawley rats [4]; [8]): 0.54 ± 0.2 mg/kg/min
glycogenolysis / hepatic glucose fluxes compared to controls (Sprague-Dawley rats [4]; [8]): marked decrease
insulin induced suppression of FFA compared to controls (Sprague-Dawley rats [4]; [8]): significantly higher
whole body glucose disposal / peripheral glucose uptake (Rd) compared to controls (Sprague-Dawley rats [4]; [8]): tended to augment
infused human peptide in the rat periphery (Sprague-Dawley rats [4]): No hIGF-1 was detected
infused human peptide in the rat periphery (Sprague-Dawley rats [4]; listed as human IGF-1): No human IGF-1, hIGFBP-3 or NLS-IGFBP-3 was identified
PEPCK mRNA in the liver, ratio to GAPDH (PEPCK mRNA in the liver): 3.4 ±0.6

Substance: sallrsipap agasrllllt geidlp (SALLRSIPAPAGASRLLLLTGEIDLP; Humanin analog colivelin)
HGP / hepatic insulin action (Sprague-Dawley rats [6]; HN 0.375 mg/kg/hr, Colivelin 0.00375 mg/kg/hr): significant further enhancement in hepatic insulin action
increase in hepatic insulin sensitivity (Sprague-Dawley rats [6]; [9]): 33%
peripheral glucose uptake (Sprague-Dawley rats [6]; [9]): unchanged

binding to 125I-labeled IGF-1 (IGF-1): bound equally
Substance: NLS: non-glycosylated NLS mutant of IGFBP-3 with two amino acid substitutions (K228E and R230G)
Glycogen synthesis, Basal (Sprague-Dawley rats [4]; [10]): 5.34 ± 0.38
Glycolysis, Basal (Sprague-Dawley rats [4]; [10]): 7.40 ± 0.71 mg/kg/min
HGP, Basal (Sprague-Dawley rats [4]; [10]): 13.00 ± 0.72 mg/kg/min
Glycogen synthesis, Clamp (Sprague-Dawley rats [4]; [11]): 6.93 ± 0.37
Glycolysis, Clamp (Sprague-Dawley rats [4]; [11]): 10.44 ± 0.96 mg/kg/min
HGP, Clamp (Sprague-Dawley rats [4]; [11]): 5.37 ± 0.65 mg/kg/min
Rd, Clamp (Sprague-Dawley rats [4]; [11]): 17.38 ± 1.11 mg/kg/min
GIR, Clamp (Sprague-Dawley rats [4]; [10]): 11.98 ± 1.14 mg/kg/min
FFA (Sprague-Dawley rats [4]; [11]): 0.35 ± 0.05 mEq/l
h-IGFBP-3 (Sprague-Dawley rats [4]; ICV IGFBP-3 or NLS mutant over 6 h, peripheral plasma): 0 ng/mL
glycogenolysis / hepatic glucose fluxes compared to controls (Sprague-Dawley rats [4]; [8]): no changes in glucose fluxes compared to controls
whole body glucose disposal / peripheral glucose uptake (Rd) compared to controls (Sprague-Dawley rats [4]; [8]): did not result in significant changes
infused human peptide in the rat periphery (Sprague-Dawley rats [4]): No human IGF-1, hIGFBP-3 or NLS-IGFBP-3 was identified
